Reference: patent US4650900A, “Aminoalkyl substituted urea derivatives and method of treatment” (H. Lundbeck A/S, priority 1985, dated 1987)

How the values were obtained:
Type in all cases: in vivo
[1] = Toxicity of Lu 9-110 (LD10, LD50); conditions: for LD50: mouse, in vivo, ip
[2] = Preliminary toxicity experiments over 1 and 4 weeks (myelosuppression); conditions: repeated administration, mice
[3] = system: Ehrlich Ascites tumor (EAT); test: Antitumor test in mice, Ehrlich Ascites tumor (EAT) model (ILS %); conditions: i.p. suspension in methylcellulose, q 8 hrs × 6, 150 mg/kg
Excerpt: (§1) The compound N-(4-dimethylamino-2,2-diphenyl-3-methyl-1-butyl)-urea, (in the following called Lu 9-110), has been tested in mice given several daily/weekly injections against the following experimental model tumors:
Ehrlich Ascites tumor (EAT)

[4] = system: L 1210 lymphoid leukaemia; test: Antitumor test in mice, L 1210 lymphoid leukaemia model (ILS %); conditions: L 1210, i.p. suspension in methylcellulose, q 8 hrs × 6, 150 mg/kg
Excerpt: as §1
L 1210 lymphoid leukaemia

[5] = system: P 388 lymphocytic leukaemia; test: Antitumor test in mice, P 388 lymphocytic leukaemia model (ILS %)
Excerpt: as §1
P 388 lymphocytic leukaemia

[6] = i.p. solution, accumulated dose
[7] = i.p. suspension, accumulated dose (independent of schedule)

Q: What does the source list for `CC(CN(C)C)C(CNC(N)=O)(c1ccccc1)c1ccccc1` (stereo not shown) [Lu 9-110, N-(4-Dimethylamino-2,2-diphenyl-3-methyl-1-butyl)-urea]?
A: LD10 [1, 6]: 300 to 500 mg/kg; LD10 ([1]; i.p. solution, single dose): ~ 100 mg/kg; LD10 [1, 7]: ~ 1100 mg/kg; LD50 [1, 6]: 400 to 600 mg/kg; LD50 ([1]; i.p. solution, single dose): ~150 mg/kg; LD50 [1, 7]: ~1400 mg/kg; myelosuppression [2]: only very slight myelosuppression; ILS % [3]: 120%; ILS % [4]: 33%; ILS % ([5]; P 388, aqueous solution, q 3 hrs × 8, 50 mg/kg): 67%; ILS % ([5]; P 388, aqueous solution, q 8 hrs × 3, 100 mg/kg): 33%; ILS % ([5]; P 388, aqueous solution, ×1, 100 mg/kg): 9%; ILS % ([5]; P 388, i.p. suspension in methylcellulose, q 8 hrs × 6, 150 mg/kg): 92%
